Results as given in PubChem BioAssay (NCI).
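Protocol summary: plate cells (96-well), add compound at 5 concentrations, incubate 48 h, interpolate endpoints linearly. At the GI50, growth is halved. TGI marks complete inhibition of growth.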

Tests used:
Test in all cases: inhibition of tumour cell growth, NCI panel, 48 h
[1] = system: SF-539 CNS
[2] = system: SW-620 colon
[3] = system: MCF7 breast
[4] = system: MALME-3M melanoma
[5] = system: PC-3 prostate
[6] = system: HCC-2998 colon
[7] = system: SK-MEL-5 melanoma
[8] = system: T-47D breast
[9] = system: HOP-92 NSCLC
[10] = system: CAKI-1 renal
[11] = system: MDA-MB-231 breast
[12] = system: 786-0 renal
[13] = system: SR leukemia
[14] = system: EKVX NSCLC
[15] = system: LOX IMVI melanoma
[16] = system: DU-145 prostate
[17] = system: BT-549 breast
[18] = system: HCT-15 colon
[19] = system: HL-60(TB) leukemia
[20] = system: SF-295 CNS
[21] = system: SF-268 CNS
[22] = system: MDA-MB-435
[23] = system: RXF 393 renal
[24] = system: HOP-62 NSCLC
[25] = system: M14 melanoma
[26] = system: NCI-H226 lung
[27] = system: RPMI-8226 leukemia
[28] = system: SN12C renal
[29] = system: A498 renal
[30] = system: UACC-62 melanoma
[31] = system: KM12 colon
[32] = system: UACC-257 melanoma
[33] = system: OVCAR-5 ovarian
[34] = system: U251 CNS
[35] = system: SK-OV-3 ovarian
[36] = system: SK-MEL-28 melanoma
[37] = system: MOLT-4 leukemia
[38] = system: SNB-19 CNS
[39] = system: HS 578T breast
[40] = system: IGROV1 ovarian
[41] = system: NCI-H23 lung
[42] = system: HCT-116 colon
[43] = system: ACHN renal
[44] = system: NCI/ADR-RES ovarian
[45] = system: NCI-H522 lung
[46] = system: A549 NSCLC
[47] = system: TK-10 renal
[48] = system: SK-MEL-2 melanoma
[49] = system: HT29 colon
[50] = system: K-562 leukemia
[51] = system: UO-31 renal
[52] = system: CCRF-CEM leukemia
[53] = system: SNB-75 CNS
[54] = system: NCI-H460 lung
[55] = system: COLO 205 colon
[56] = system: OVCAR-3 ovarian
[57] = system: OVCAR-8 ovarian
[58] = system: OVCAR-4 ovarian

## O=C1Nc2ccccc2/C1=C1\CCc2cc(O)ccc21
[1]
  GI50: 9.64 µM
  TGI: > 25 µM
[2]
  GI50: 8.05 µM
  TGI: > 25 µM
[3]
  GI50: 2.74 µM
  TGI: > 25 µM
[4]
  GI50: 8.11 µM
  TGI: > 25 µM
[5]
  GI50: 12.4 µM
  TGI: > 25 µM
[6]
  GI50: 9.41 µM
  TGI: > 25 µM
[7]
  GI50: 6.62 µM
  TGI: > 25 µM
[8]
  GI50: 6.35 µM
  TGI: > 25 µM
[9]
  GI50: 5.93 µM
  TGI: 22.8 µM
[10]
  GI50: 7.12 µM
  TGI: > 25 µM
[11]
  GI50: 7.22 µM
  TGI: > 25 µM
[12]
  GI50: 19.2 µM
  TGI: > 25 µM
[13]
  GI50: 4.25 µM
  TGI: > 25 µM
[14]
  GI50: 4.17 µM
  TGI: > 25 µM
[15]
  GI50: 6.5 µM
  TGI: > 25 µM
[16]
  GI50: 11.4 µM
  TGI: > 25 µM
[17]
  GI50: 8.47 µM
  TGI: > 24.2 µM
[18]
  GI50: 5.26 µM
  TGI: > 25 µM
[19]
  GI50: 6.65 µM
  TGI: > 21.5 µM
[20]
  GI50: 11.3 µM
  TGI: > 25 µM
[21]
  GI50: 10.1 µM
  TGI: > 25 µM
[22]
  GI50: 2.24 µM
  TGI: > 25 µM
[23]
  GI50: 9.85 µM
  TGI: > 25 µM
[24]
  GI50: 9.95 µM
  TGI: > 25 µM
[25]
  GI50: 7.18 µM
  TGI: > 25 µM
[26]
  GI50: 12.4 µM
  TGI: > 25 µM
[27]
  GI50: 9.71 µM
  TGI: > 25 µM
[28]
  GI50: 7.84 µM
  TGI: > 25 µM
[29]
  GI50: 5.65 µM
  TGI: 17.8 µM
[30]
  GI50: 7.73 µM
  TGI: > 25 µM
[31]
  GI50: 1.01 µM
  TGI: > 25 µM
[32]
  GI50: 9.47 µM
  TGI: > 25 µM
[33]
  GI50: 16.1 µM
  TGI: > 25 µM
[34]
  GI50: 8.84 µM
  TGI: > 25 µM
[35]
  GI50: 8.5 µM
  TGI: > 25 µM
[36]
  GI50: 15.3 µM
  TGI: > 25 µM
[37]
  GI50: 12.2 µM
  TGI: > 25 µM
[38]
  GI50: 13.2 µM
  TGI: > 25 µM
[39]
  GI50: 7.12 µM
  TGI: > 25 µM
[40]
  GI50: 7.63 µM
  TGI: > 25 µM
[41]
  GI50: 7.07 µM
  TGI: > 25 µM
[42]
  GI50: 8.79 µM
  TGI: > 25 µM
[43]
  GI50: 10.6 µM
  TGI: > 25 µM
[44]
  GI50: 7.65 µM
  TGI: > 25 µM
[45]
  GI50: 9.85 µM
  TGI: > 25 µM
[46]
  GI50: 9.45 µM
  TGI: > 25 µM
[47]
  GI50: 10.7 µM
  TGI: > 25 µM
[48]
  GI50: 9.99 µM
  TGI: > 25 µM
[49]
  GI50: 9.77 µM
  TGI: > 25 µM
[50]
  GI50: 9.09 µM
  TGI: > 25 µM
[51]
  GI50: 1.67 µM
  TGI: > 23.9 µM
[52]
  GI50: 7.19 µM
  TGI: > 25 µM
[53]
  GI50: 8.06 µM
  TGI: > 25 µM
[54]
  GI50: 8.7 µM
  TGI: > 25 µM
[55]
  GI50: 12.4 µM
  TGI: > 25 µM
[56]
  GI50: 9.95 µM
  TGI: > 25 µM
[57]
  GI50: 10.4 µM
  TGI: > 25 µM
[58]
  GI50: 7.02 µM
  TGI: > 25 µM

## CCOC(=O)c1nc2ccc(C(F)(F)F)cc2nc1Oc1ccc(C#N)cc1
[1]
  TGI: 36.7 µM
[2]
  TGI: > 100 µM
[3]
  TGI: 37.7 µM
[5]
  TGI: 36 µM
[6]
  TGI: > 100 µM
[7]
  TGI: > 100 µM
[8]
  TGI: > 100 µM
[9]
  TGI: 47.2 µM
[10]
  TGI: 59.1 µM
[11]
  TGI: 27.9 µM
[12]
  TGI: 35.6 µM
[13]
  TGI: > 100 µM
[14]
  TGI: 30.2 µM
[15]
  TGI: > 100 µM
[16]
  TGI: 38.1 µM
[17]
  TGI: 36.8 µM
[18]
  TGI: > 100 µM
[19]
  TGI: > 100 µM
[20]
  TGI: 31.5 µM
[21]
  TGI: 33.6 µM
[22]
  TGI: > 100 µM
[23]
  TGI: 37.8 µM
[24]
  TGI: 28.9 µM
[25]
  TGI: 42.9 µM
[26]
  TGI: 34.8 µM
[27]
  TGI: > 100 µM
[29]
  TGI: 57.1 µM
[30]
  TGI: 36.5 µM
[31]
  TGI: > 100 µM
[32]
  TGI: 65.8 µM
[34]
  TGI: 61.1 µM
[35]
  TGI: 46 µM
[36]
  TGI: > 100 µM
[37]
  TGI: > 100 µM
[38]
  TGI: 35.3 µM
[39]
  TGI: 36.5 µM
[40]
  TGI: 28.5 µM
[41]
  TGI: > 100 µM
[42]
  TGI: > 100 µM
[43]
  TGI: > 100 µM
[44]
  TGI: 48.9 µM
[47]
  TGI: 84.3 µM
[48]
  TGI: 30.5 µM
[49]
  TGI: 77.9 µM
[50]
  TGI: > 100 µM
[51]
  TGI: > 100 µM
[52]
  TGI: > 100 µM
[53]
  TGI: 28 µM
[54]
  TGI: > 100 µM
[55]
  TGI: 88.5 µM
[57]
  TGI: 46.4 µM
[58]
  TGI: 83.8 µM
